The structures appear in SMILES notation. Like-named read-outs stand apart in the source and are kept apart here.

In test [1] the target is dopamine transporter (DAT) (Cavia porcellus, UniProt H0WCX4). The test is described as follows: Dopamine transporter binding assay [3H]WIN 35,428. The arrangement: species or system Guinea Pig. The settings on record: for inhibition at 10 µM: read-out: INH at 10 μM DAT. The method, then: DAT inhibition activity was tested according to the procedure described by J. Javitz et al., Mol. Pharmacol., 26: 35-44 (1984). The test results for a number of representative compounds of the invention are reported hereinbelow.
Sequence of dopamine transporter (DAT) (H0WCX4 1-619): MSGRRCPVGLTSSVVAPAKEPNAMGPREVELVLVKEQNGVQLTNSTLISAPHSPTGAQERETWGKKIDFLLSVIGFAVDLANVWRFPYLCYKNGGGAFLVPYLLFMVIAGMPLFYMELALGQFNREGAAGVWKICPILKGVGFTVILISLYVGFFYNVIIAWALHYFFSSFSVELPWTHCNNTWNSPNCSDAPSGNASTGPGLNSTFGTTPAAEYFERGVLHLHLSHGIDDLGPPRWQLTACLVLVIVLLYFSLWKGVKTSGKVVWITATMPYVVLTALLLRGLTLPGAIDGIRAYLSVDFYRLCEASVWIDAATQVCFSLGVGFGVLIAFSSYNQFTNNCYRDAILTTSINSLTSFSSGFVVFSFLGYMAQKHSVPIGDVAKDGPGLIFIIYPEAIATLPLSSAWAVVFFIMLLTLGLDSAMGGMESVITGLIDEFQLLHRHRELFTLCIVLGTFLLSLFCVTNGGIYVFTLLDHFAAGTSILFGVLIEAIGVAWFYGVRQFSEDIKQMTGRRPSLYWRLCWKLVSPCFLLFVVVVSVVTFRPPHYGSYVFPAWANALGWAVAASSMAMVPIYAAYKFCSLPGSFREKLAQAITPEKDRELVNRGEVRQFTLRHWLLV
I. Dopamine Transporter Binding Assay [3H]WIN 35,428
• This assay was carried out according to the procedure described by Javitch, J. J. et al., Mol. Pharmacol. 26: 35-44; 1984
A. Tissue Preparation (Prepare all Solutions on Ice) • 1. Thaw frozen brains from male Guinea Pigs (in assay buffer) and place in 50 mM TRIS-HCl (pH 7.4 at 25° C. with 120 mM NaCl). Isolate striatum. • 2. Use a Polytron to homogenize tissue in 20 vols. (w/v) of 50 mM Tris-HCl (pH 7.4 at 25° C. with 120 mM NaCl). • 3. Centrifuge homogenate at 48,400×g for approximately 10 minutes at 4° C. Discard supernatant. • 4. Wash pellet an additional time as described in steps 2 and 3. • 5. Store pellet on ice until needed for binding assay. • 6. Using a Polytron (setting 5; approximately 10 seconds) resuspend pellet in 50 mM Tris-HCl (pH 7.4 at 25° C. with 120 mM NaCl) to an initial concentration of 10 mg/ml (original wet weight), such that the final concentration is 8 mg/ml or 4.0 mg tissue/tube.
B. Binding Reaction • 1. Each tube receives the following components: • 50 ul drug or vehicle • 50 ul [3H]-WIN 35,428 • 400 ul tissue suspension. • 2. Initiate binding reaction with the addition of tissue, and incubate for 120 minutes at 0° C. (on ice). • 3. Terminate binding reaction by rapid filtration of tube contents onto untreated Whatman GF/C filters. • 4. Rinse the assay tubes once with ice cold 50 mM TRIS HCl (pH 7.4 at 25° C. with 120 mM NaCl, BSA), then rapidly rinse the filters with 6×1 mls/tube of the same wash buffer. • 5. Radioactivity trapped onto the filters is assessed using LSM machine. Let sit for 3 hours in scint cocktail.
C. Dopamine Tranasporter Binding Assay
Materials and Reagents • 1. [3H]-WIN 35-428 is diluted to a concentration of 60 nM in 50 mM TRIS HCl (pH 7.4 at 25° C. with 120 mM NaCl). Thus, the final ligand concentration is 6 nM. • 2. Non-specific binding is defined as that remaining in the presence of 1×10^-6 M GBR12909 (room temperature cabinet). GBR12909 MW=523.5 g/mol. Will solubilize in 4% DMSO (sonicate 15 minutes). Aliquots can be used (1E-3). • 3. The reference compound for the assay is GBR12909 and is diluted in 4% DMSO and is then run at the following final concentrations: 1×10^−10, 5×10^−10, 2×10^−9, 5×10^−9, 1×10^−8, 2×10^−8, 5×10^−8, 1×10^−7, 2×10^−7, 5×10^−7, 1×10^−6, 5×10^−6. • 4. The positive control GBR12909 and is run at the final concentrations of: 2×10-8, 1×10^−7, 5×10^−7M. • 5. The Kd for the receptor is 28.0 nM. Buffers

Test [2] concerns the target Norepinephrine Transporter (Human Recombinant) (Homo sapiens (Human), UniProt P23975). Nature of the test: Norepinephrine transporter (human recombinant) binding assay, [3H]-Nisoxetine. The settings on record: for inhibition at 10 µM: read-out: INH at 10 μM NET. The method, then:
II: Norepinephrine Transporter (Human Recombinant) Binding Assay • This assay was carried out in accordance with the procedure described by Raisman, R, et al. Eur. Jrnl. Pharmacol. 78: 345-351 (1982) with modifications. See also, Langer, S., et al., Eur. Jrnl. Pharmacol, 72: 423-4 (1981). Tissue Preparation • 1. hrNET (Receptor Biology; RBNET) is diluted in assay buffer to 2.5 microunits/ml, so that each tube receives 0.5 microunits, or 2 microunits/ml. • NOTE: 100 microassays, add 20 mis of buffer. Binding Reaction • 1. Each tube receives the following components: • 25 ul drug or vehicle • 25 ul [^3H]-Nisoxetine • 200 ul tissue suspension. • 2. Initiate binding reaction with the addition of tissue, and incubate at room temperature for 1 hour. • 3. Terminate binding reaction by rapid filtration of tube contents onto 0.1% PEI treated GF/C filters (TopCount). • 4. Rinse the assay tubes once with ice cold 50 mM NaCl, then rapidly rinse the filters with 6×1 ml/tube of the same wash buffer. • 5. Radioactivity trapped onto the filters is assessed using liquid scintillation spectrophotometer after soaking the filters for at least 1 hour in scintillation cocktail. Materials and Reagents • 1. The receptor source is human recombinant/CHO. • 2. [^3H]-Nisoxetine, diluted to a concentration of 10 nM in assay buffer, is used as the radioligand. Thus, the final ligand concentration is 1 nM. • 3. Non specific binding is defined as that remaining in the presence of 1×10^−6M desipramine (MW=302.8) (Make fresh: in bag with dessicating rocks 1, dissolves in water 1E-3). • 4. The reference compound for the assay is desipramine. Desimpramine is run at following final concentrations: • 1×10^−10, 2×10^−10, 5×10^−10, 1×10^−9, 2×10^−9, 5×10^−9, 1×10^−8, 2×10^−8, 5×10^−8, 1×10^−7, 2×10^−7, 5×10^−7M • 5. The positive control is any of the above run at the final concentrations of: • 1×10^−9, 5×10^−9, 2×10^−8 M. • 6. The Kd for the receptor is 3 nM. Buffers

For test [3] the following is noted: in vivo; cited from earlier work.

Consider `O=C(/N=c1\[cH-][n+](Cc2ccccc2)no1)Nc1ccccc1` [Example 1, N-phenylcarbamoyl-3-(benzyl)-sydonimine], for which the Ki in test [1] amounted to 36 nM. In addition, the values for the inhibition at 10 µM in test [1] and in test [2] were 90% and 0%, respectively.

Take `O=C([N-]c1c[n+](Cc2ccc(C(=O)O)cc2)no1)Nc1ccccc1` [Example 2]: the “INH at 10 μM DAT” value in test [1] (10 μM) was determined as 92%. Also, the Ki in test [1] (read-out: Ki DAT) was 2.7 nM. In test [2] (10 μM), the “INH at 10 μM NET” value is 11%.

Regarding `O=C(/N=c1\[cH-][n+](CCc2ccccc2)no1)Nc1ccc(Cl)c(Cl)c1` [Example 4, N-(3′,4′-dichlorophenyl) carbamoyl-3-phenethyl sydnonimine], in test [1], the Ki amounted to 40 nM and the inhibition at 10 µM came to 99%. In test [2], the inhibition at 10 µM was determined as 2%.

`O=C(/N=c1\[cH-][n+](CCc2ccc([N+](=O)[O-])cc2)no1)Nc1ccc([N+](=O)[O-])c([N+](=O)[O-])c1` [Example 5, N-(3′,4′-dinitrophenyl)carbamoyl-3-p-nitrophenethyl sydnonimine] came in with an inhibition constant Ki in test [1] of 100 nM. In addition, the inhibition at 10 µM in test [1] worked out at 85%; in test [2], 4%.

With `O=C(/N=c1\[cH-][n+](Cc2ccc(F)cc2)no1)Nc1ccccc1` [Example 7, N-phenylcarbamoyl-3-(p-fluoro-benzyl)-sydnonimine], the Ki in test [1] was 0.46 nM. The inhibition at 10 µM was determined as 99% in test [1] and 15% in test [2].

Take `CC(Cc1ccccc1)[n+]1cc([N-]C(=O)Nc2ccccc2)on1` (stereo not shown) [sydnocarb, 3-(1-methyl-2-phenylethyl)-N-(phenylcarbomoyl)sydnone imine]: in test [3], the “Effect on locomotor activity in open field studies” value is given as “locomotor stimulating effect”.

Usually Ki stands for a dissociation constant, usually derived from enzyme kinetics or from competition with a known ligand.
